These results are taken from PMC6035067 (The Biochemical journal, 2018).

Entries after “also recorded” stand apart in the source; their conditions may differ. Like-named read-outs stand apart in the source and are kept apart here.

The target in test [1] is T1, EtCYP112 (Erwinia tracheiphila, UniProt A0A0M2KIP9). As to the kind of experiment: UV-Vis spectral binding titration of EtCYP112. Particulars: for shift of the Soret-band from 419 to 391 nm: upon ligand addition.
Test [2] deals with T1, EtCYP112. In kind it is biochemical. Conditions: 20 μM substrate, 60 μM NADPH, 12 h at 25 °C.
For test [3], the target named is T1, EtCYP112. Particulars: previously tested as substrates; ref [9]; cited from earlier work.
[4] abbreviates: conversion of EtCYP112 to high-spin state upon ligand addition.
The mark [5] stands for this setting: α-band absorption at 570 nm upon ligand addition.

In the case of `C=C1C[C@]23C[C@H]1CC[C@H]2[C@]1(C)CCC[C@@](C)(C(=O)O)[C@H]1C[C@@H]3O` (single isomer, unassigned) [ent-7α-hydroxy kaurenoic acid], the “High Spin State” value on EtCYP112 [1] (setting [4]) is given as 50 – 60%. The “α-band Absorbtion” value at EtCYP112 [1] (setting [5]) was “decreased”. Further, the “conversion by EtCYP112 (products observed)” value on EtCYP112 [2] was “no products were observed”.

As for `C=C1C[C@]23C[C@H]1CC[C@H]2[C@@]12CCC[C@@](C)(C(=O)O1)[C@H]2[C@@H]3C(=O)O` [GA9], at EtCYP112 [1] (setting [4]), the “High Spin State” value is below 5%. On EtCYP112 [1], the “shift of the Soret-band from 419 to 391 nm” value (from here on “shift of the Soret-band”) is listed as around 5%. Moreover, the “α-band Absorbtion” value at EtCYP112 [1] (setting [5]) is listed as “without any decrease; also recorded: unchanged”.

Take `C=C1C[C@]23C[C@H]1CC[C@H]2[C@]1(C)CCC[C@@](C)(C(=O)O)[C@H]1[C@@H]3C=O` [GA12-aldehyde]: on EtCYP112 [1] (setting [4]), the “High Spin State” value was above 90%. Besides, the “α-band Absorbtion” value at EtCYP112 [1] (setting [5]) is “decreased”. Further, the “conversion by EtCYP112 (products observed)” value at EtCYP112 [2] is listed as “transformed into two products”.

As to `C=C1C[C@]23C[C@H]1CC[C@H]2[C@]1(C)CCC[C@@](C)(C(=O)O)[C@H]1[C@@H]3C(=O)O` [GA12], on EtCYP112 [1] (setting [4]), the “High Spin State” value is given as above 90%. The “α-band Absorbtion” value on EtCYP112 [1] (setting [5]) is on record as “decreased”.

On to `C=C1C[C@]23C[C@H]1CC[C@H]2[C@@]12CCC[C@@](C)(C(=O)OC1)[C@H]2[C@@H]3C(=O)O` [GA15 (closed lactone), GA15], for which, at EtCYP112 [1] (setting [4]), the “High Spin State” value is on record as above 90%. In addition, the “α-band Absorbtion” value at EtCYP112 [1] (setting [5]) is given as “decreased”.

Turning to `C=C1C[C@]23C[C@H]1CC[C@H]2[C@]1(CO)CCC[C@@](C)(C(=O)O)[C@H]1[C@@H]3C(=O)O` [GA15 (open lactone), GA15], at EtCYP112 [1], the “High Spin State” value is listed as above 90% and the “α-band Absorbtion” value is reported as “decreased”.

In the case of `C=C1C[C@]23C[C@H]1CC[C@H]2[C@]1(C=O)CCC[C@@](C)(C(=O)O)[C@H]1[C@@H]3C(=O)O` [GA24], the “High Spin State” value on EtCYP112 [1] (setting [4]) is 80 – 90%. For the same compound, on EtCYP112 [1] (setting [5]), the “α-band Absorbtion” value is reported as “decreased”.

For `C=C1C[C@]23C[C@H]1CC[C@H]2[C@]1(C(=O)O)CCC[C@@](C)(C(=O)O)[C@H]1[C@@H]3C(=O)O` [GA25], the “conversion by EtCYP112” value at EtCYP112 [3] is “does not react”. Moreover, the “High Spin State” value at EtCYP112 [1] (setting [4]) is 10 – 20%. Also, the “shift of the Soret-band” value on EtCYP112 [1] is on record as 10–20%. Besides, the “α-band Absorbtion” value on EtCYP112 [1] (setting [5]) is given as “without any decrease; also recorded: unchanged”.

`C=C1C[C@]23C[C@H]1CC[C@H]2[C@]1(C)CCC[C@@](C)(C(=O)OC)[C@H]1[C@@H]3C(=O)OC` [MeGA12]: the “conversion by EtCYP112” value at EtCYP112 [3] is reported as “converted by EtCYP112 to GA9”. Also, the “fold higher Kd than free GA12” value on EtCYP112 [1] (Kd of MeGA12 relative to GA12) was found to be 5 fold. Moreover, the “High Spin State” value at EtCYP112 [1] (setting [4]) is 50 – 60%. Moreover, the “α-band Absorbtion” value at EtCYP112 [1] (setting [5]) is “decreased”.

As for `C=C1C[C@]23C[C@H]1CC[C@H]2[C@@]12CCC[C@@](C)(C(=O)OC1)[C@H]2[C@@H]3C(=O)OC` [MeGA15], the “conversion by EtCYP112” value at EtCYP112 [3] is listed as “converted by EtCYP112 to GA9”. For the same compound, the “fold more tightly bound than the analogous form of free GA15” value on EtCYP112 [1] (MeGA15 (closed δ-lactone) relative to GA15 closed lactone) is “about 6 fold”. Also, the “High Spin State” value at EtCYP112 [1] (setting [4]) was 80 – 90%. Also, the “α-band Absorbtion” value on EtCYP112 [1] (setting [5]) was “decreased”.

On to `C=C1C[C@]23C[C@H]1CC[C@H]2[C@]1(C=O)CCC[C@@](C)(C(=O)OC)[C@H]1[C@@H]3C(=O)OC` [MeGA24], for which the “conversion by EtCYP112” value on EtCYP112 [3] is given as “does not react”. In addition, the “High Spin State” value at EtCYP112 [1] (setting [4]) was 5 – 10%. In addition, the “shift of the Soret-band” value at EtCYP112 [1] is given as “only induces a partial shift”. The “α-band Absorbtion” value at EtCYP112 [1] (setting [5]) is reported as “no decrease; also recorded: unchanged”.

On to `C=C1C[C@@]23CC[C@H]4[C@@](C)(CCC[C@@]4(C)C=O)[C@@H]2CC[C@@H]1C3` [ent-kaurenal], for which, on EtCYP112 [1] (setting [4]), the “High Spin State” value was 5 – 10%. Further, on EtCYP112 [1] (setting [5]), the “α-band Absorbtion” value was “decreased”. In addition, at EtCYP112 [2], the “conversion by EtCYP112 (products observed)” value is given as “no products were observed”.

Take `C=C1C[C@@]23CC[C@@H]4C(C)(C)CCC[C@@]4(C)[C@@H]2CC[C@@H]1C3` [ent-kaurene]: the “High Spin State” value at EtCYP112 [1] (setting [4]) is given as below 5%. The “shift of the Soret-band” value at EtCYP112 [1] is given as “only induces a small shift”. Also, the “α-band Absorbtion” value at EtCYP112 [1] (setting [5]) is listed as “no decrease; also recorded: unchanged”. Further, the “conversion by EtCYP112 (products observed)” value at EtCYP112 [2] is on record as “did not serve as substrates”.

Take `C=C1C[C@@]23CC[C@H]4[C@@](C)(CCC[C@@]4(C)C(=O)O)[C@@H]2CC[C@@H]1C3` [ent-kaurenoic acid]: at EtCYP112 [1] (setting [4]), the “High Spin State” value is given as 50 – 60%. Further, the “α-band Absorbtion” value at EtCYP112 [1] (setting [5]) is “decreased”. In addition, on EtCYP112 [2], the “conversion by EtCYP112 (products observed)” value was “no products were observed”.

Turning to `C=C1C[C@@]23CC[C@@H]4[C@](C)(CO)CCC[C@@]4(C)[C@@H]2CC[C@@H]1C3` [ent-kaurenol], the “High Spin State” value on EtCYP112 [1] (setting [4]) was 20 – 30%. Also, the “α-band Absorbtion” value at EtCYP112 [1] (setting [5]) is reported as “decreased”. Also, on EtCYP112 [2], the “conversion by EtCYP112 (products observed)” value was “no products were observed”.

`C=C1C[C@@]23CC[C@H]4[C@@](C)(CCC[C@@]4(C)C(=O)OC)[C@@H]2CC[C@@H]1C3` [methyl-ent-kaurenoate]: the “High Spin State” value at EtCYP112 [1] (setting [4]) was 10 – 15%. Moreover, at EtCYP112 [1] (setting [5]), the “α-band Absorbtion” value is listed as “decreased”. The “conversion by EtCYP112 (products observed)” value on EtCYP112 [2] is reported as “no products were observed”.
